Assay results: paper PMC9516332 (Frontiers in Oncology, 2022)
Read-outs that look alike come from different tables or passages of the source.

What was measured:
Test in all cases: Kinase panel profiling at 1 µmol/L (MSA or IMAP), percentage inhibition
Format in all cases: biochemical
[1] = target: panel of 255 wild-type kinases (Homo sapiens, UniProt P10721); settings: kinase KIT; 1 µmol/L single concentration; read-out: %-inhibition at 1 µmol/L, KIT
[2] = target: T1, panel of 255 wild-type kinases (Homo sapiens, UniProt P52333); settings: read-out: %-inhibition at 1 µmol/L, JAK3
T1 sequence (P52333 1-1124): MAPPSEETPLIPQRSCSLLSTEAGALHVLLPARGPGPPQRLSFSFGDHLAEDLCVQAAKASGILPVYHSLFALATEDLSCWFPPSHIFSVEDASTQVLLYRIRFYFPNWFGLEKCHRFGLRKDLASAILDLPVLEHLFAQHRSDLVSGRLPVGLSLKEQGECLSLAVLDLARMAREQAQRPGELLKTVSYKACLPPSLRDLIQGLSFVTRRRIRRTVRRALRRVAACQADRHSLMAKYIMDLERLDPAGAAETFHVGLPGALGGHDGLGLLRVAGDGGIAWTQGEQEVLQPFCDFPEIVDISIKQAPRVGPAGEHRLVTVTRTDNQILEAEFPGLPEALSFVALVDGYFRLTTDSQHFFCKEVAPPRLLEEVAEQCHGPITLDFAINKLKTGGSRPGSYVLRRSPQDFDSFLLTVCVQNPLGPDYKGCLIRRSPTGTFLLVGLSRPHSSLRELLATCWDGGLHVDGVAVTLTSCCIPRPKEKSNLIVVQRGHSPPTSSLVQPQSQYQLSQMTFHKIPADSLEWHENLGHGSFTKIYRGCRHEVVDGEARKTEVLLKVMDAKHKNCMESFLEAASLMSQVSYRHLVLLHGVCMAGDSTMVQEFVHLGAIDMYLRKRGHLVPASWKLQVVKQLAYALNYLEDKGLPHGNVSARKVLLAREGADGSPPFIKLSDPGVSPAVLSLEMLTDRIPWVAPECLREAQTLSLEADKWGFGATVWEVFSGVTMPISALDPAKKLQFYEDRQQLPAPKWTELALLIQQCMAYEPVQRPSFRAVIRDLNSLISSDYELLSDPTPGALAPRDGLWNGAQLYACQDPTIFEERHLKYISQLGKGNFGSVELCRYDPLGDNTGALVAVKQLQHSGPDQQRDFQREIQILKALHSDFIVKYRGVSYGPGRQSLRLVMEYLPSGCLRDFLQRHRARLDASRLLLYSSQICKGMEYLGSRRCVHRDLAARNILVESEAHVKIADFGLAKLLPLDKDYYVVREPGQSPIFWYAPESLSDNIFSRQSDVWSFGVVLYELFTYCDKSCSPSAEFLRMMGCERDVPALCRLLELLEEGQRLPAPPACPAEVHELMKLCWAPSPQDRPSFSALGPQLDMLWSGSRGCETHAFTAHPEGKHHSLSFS

[3] = target: panel of 255 wild-type kinases (Homo sapiens, UniProt P54646); settings: AMPKα2/β1/γ1 kinase assay; 1 µmol/L single concentration; read-out: %-inhibition AMPKα2/β1/γ1
[4] = target: T2, panel of 255 wild-type kinases (Homo sapiens, UniProt Q02156); settings: kinase PKCε; 1 µmol/L single concentration; read-out: %-inhibition at 1 µmol/L, PKCε
T2 sequence (Q02156 1-737): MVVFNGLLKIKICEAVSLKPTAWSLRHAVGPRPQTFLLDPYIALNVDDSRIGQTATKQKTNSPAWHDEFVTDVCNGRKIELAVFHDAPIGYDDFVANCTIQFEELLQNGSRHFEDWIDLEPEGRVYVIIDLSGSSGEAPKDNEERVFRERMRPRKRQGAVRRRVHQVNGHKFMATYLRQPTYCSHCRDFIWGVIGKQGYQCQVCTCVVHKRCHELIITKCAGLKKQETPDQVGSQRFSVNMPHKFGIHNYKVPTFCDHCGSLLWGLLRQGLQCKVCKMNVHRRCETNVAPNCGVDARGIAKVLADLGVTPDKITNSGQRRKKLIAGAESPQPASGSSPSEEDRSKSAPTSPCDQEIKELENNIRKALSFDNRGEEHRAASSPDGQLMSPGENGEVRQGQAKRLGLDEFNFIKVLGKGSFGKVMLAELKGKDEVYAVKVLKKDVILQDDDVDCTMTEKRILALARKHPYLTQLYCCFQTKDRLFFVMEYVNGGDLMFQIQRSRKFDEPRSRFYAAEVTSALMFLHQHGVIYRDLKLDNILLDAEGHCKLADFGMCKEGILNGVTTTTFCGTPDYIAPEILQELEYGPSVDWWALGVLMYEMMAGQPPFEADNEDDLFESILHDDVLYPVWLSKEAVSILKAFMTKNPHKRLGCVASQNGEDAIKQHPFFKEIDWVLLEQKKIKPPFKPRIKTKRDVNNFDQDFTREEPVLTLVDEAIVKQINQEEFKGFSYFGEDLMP

[5] = target: panel of 255 wild-type kinases (Homo sapiens, UniProt Q02763); settings: kinase TIE2; 1 µmol/L single concentration; read-out: %-inhibition at 1 µmol/L, TIE2
[6] = target: T3, panel of 255 wild-type kinases (Homo sapiens, UniProt Q8NE63); settings: kinase HIPK4; 1 µmol/L single concentration; read-out: %-inhibition at 1 µmol/L, HIPK4
T3 sequence (Q8NE63 1-616): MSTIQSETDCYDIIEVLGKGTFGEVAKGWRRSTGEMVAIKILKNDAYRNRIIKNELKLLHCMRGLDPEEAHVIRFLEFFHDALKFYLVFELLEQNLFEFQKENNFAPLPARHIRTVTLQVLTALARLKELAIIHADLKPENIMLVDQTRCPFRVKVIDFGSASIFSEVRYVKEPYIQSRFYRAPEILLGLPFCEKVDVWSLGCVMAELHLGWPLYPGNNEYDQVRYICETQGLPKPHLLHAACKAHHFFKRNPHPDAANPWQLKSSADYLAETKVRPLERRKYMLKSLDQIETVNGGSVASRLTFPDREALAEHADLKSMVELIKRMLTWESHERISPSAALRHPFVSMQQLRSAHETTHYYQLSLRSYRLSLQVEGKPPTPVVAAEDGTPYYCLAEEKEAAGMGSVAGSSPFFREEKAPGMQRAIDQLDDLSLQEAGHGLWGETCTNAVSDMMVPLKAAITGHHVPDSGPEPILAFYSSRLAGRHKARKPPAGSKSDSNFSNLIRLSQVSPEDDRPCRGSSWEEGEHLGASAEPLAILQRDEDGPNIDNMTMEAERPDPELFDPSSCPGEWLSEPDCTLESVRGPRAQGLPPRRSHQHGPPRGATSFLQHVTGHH

| SMILES | inhibition at 1 µM [1] [%] | inhibition at 1 µM [2] [%] | inhibition at 1 µM [3] [%] | inhibition at 1 µM [4] [%] | inhibition at 1 µM [5] [%] | inhibition at 1 µM [6] [%] | inhibition at 1 µM ([2]; kinase JAK3, 1 µmol/L single concentration) [%] |
| --- | --- | --- | --- | --- | --- | --- | --- |
| C=CC(=O)N1CCC([C@@H]2CCNc3c(C(N)=O)c(-c4ccc(Oc5ccccc5)cc4)nn32)CC1 [zanubrutinib] | -4.47 | 10 | -5 | 8 | 2 | 7 |  |
| Cn1cc(-c2cc3c(N4CCN(c5ncc([C@@](C)(N)c6ccc(F)cc6)cn5)CC4)ncnn3c2)cn1 [avapritinib] | 100 |  | 3 | -2.54 | 3.23 | 46 | 64 |
